# PubChem BioAssay (NCI)
#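 Cultured in 96-well plates, cells were exposed to test compound for 48 hours across five concentrations. TGI: concentration producing complete growth inhibition.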
# Key:
# Experiment in all cases: inhibition of tumour cell growth, NCI panel, 48 h
# [1] = system: NCI-H23 lung
# [2] = system: NCI-H522 lung
# [3] = system: PC-3 prostate
# [4] = system: SF-539 CNS
# [5] = system: K-562 leukemia
# [6] = system: RXF 393 renal
# [7] = system: OVCAR-4 ovarian
# [8] = system: MOLT-4 leukemia
# [9] = system: HCC-2998 colon
# [10] = system: OVCAR-3 ovarian
# [11] = system: MDA-N
# [12] = system: HCT-116 colon
# [13] = system: U251 CNS
# [14] = system: HS 578T breast
# [15] = system: CCRF-CEM leukemia
# [16] = system: NCI-H226 lung
# [17] = system: MALME-3M melanoma
# [18] = system: UO-31 renal
# [19] = system: IGROV1 ovarian
# [20] = system: HOP-18 NSCLC
Structure (SMILES),TGI [1],TGI [2],TGI [3],TGI [4],TGI [5],TGI [6],TGI [7],TGI [8],TGI [9],TGI [10],TGI [11],TGI [12],TGI [13],TGI [14],TGI [15],TGI [16],TGI [17],TGI [18],TGI [19],TGI [20]
O[C@H]1[C@H]2[C@H](O)C[C@H](CCOCc3ccccc3)CN2C[C@H]1O,> 100 µM,> 100 µM,> 100 µM,> 100 µM,> 100 µM,> 100 µM,> 100 µM,> 100 µM,> 100 µM,> 100 µM,> 100 µM,> 100 µM,> 100 µM,> 100 µM,> 100 µM,> 100 µM,> 100 µM,> 100 µM,> 100 µM,–
Cn1c2ccccc2n2c3ccccc3c(=O)c(C#N)c12,> 59.8 µM,58.1 µM,> 100 µM,> 80.8 µM,> 100 µM,> 100 µM,> 100 µM,17.8 µM,> 100 µM,> 100 µM,> 100 µM,33.9 µM,55.5 µM,66.7 µM,> 100 µM,34.1 µM,49.9 µM,> 71.2 µM,> 87 µM,–
CCOC(=O)CCC(NC(=O)c1ccc(Nc2cnc3ccc(C(F)(F)F)cc3n2)cc1)C(=O)OCC (stereo not given),> 72.5 µM,> 100 µM,> 100 µM,39 µM,> 100 µM,> 90.2 µM,> 74.3 µM,> 100 µM,> 100 µM,> 100 µM,> 100 µM,> 100 µM,> 100 µM,> 65.9 µM,> 100 µM,> 100 µM,> 100 µM,> 100 µM,> 47.2 µM,–
CC1(C)CCC[C@@]2(C)C1C(=O)[C@@H]1O[C@]1(C)[C@@H]2CO (stereo not given in full),67.9 µM,93.1 µM,> 100 µM,> 100 µM,> 100 µM,75.6 µM,> 100 µM,> 100 µM,66.5 µM,50.8 µM,> 100 µM,> 100 µM,70.8 µM,> 100 µM,> 100 µM,> 100 µM,> 100 µM,> 100 µM,> 100 µM,–
O=S(=O)(NC1OCCCC1I)c1ccccc1 (stereo not given),> 100 µM,> 100 µM,> 100 µM,> 100 µM,> 100 µM,> 100 µM,> 100 µM,> 100 µM,> 100 µM,> 100 µM,> 100 µM,> 100 µM,> 100 µM,> 100 µM,> 100 µM,> 100 µM,> 100 µM,> 100 µM,> 100 µM,–
COC(=O)NC(=O)c1cn(CCCOC(=O)CCCCCCCCC(=O)OCCCn2cc(C(=O)NC(=O)OC)c(=O)[nH]c2=O)c(=O)[nH]c1=O,> 100 µM,–,–,> 100 µM,> 100 µM,75 µM,> 100 µM,> 100 µM,> 100 µM,> 100 µM,–,> 100 µM,–,–,> 100 µM,> 100 µM,> 100 µM,> 100 µM,> 100 µM,> 100 µM
